How the values were obtained:
[1] = system: rabbit serum obtained by immunizing a rabbit with the SARS-CoV strain Frankfurt 1; format: binding; design: Binding of a rabbit serum to linear peptides / Binding of a rabbit serum to looped peptides / Rabbit serum linear peptides / Rabbit serum looped peptides / Binding of a rabbit serum to linear peptides of protein N of SARS-CoV Urbani (Rabbit serum linear peptides) / Binding of a rabbit serum to looped/cyclic peptides of protein N of SARS-CoV Urbani (Rabbit serum looped peptides): unit not given here
[2] = system: control sera (pooled serum of ten healthy LUMC hospital workers; commercial negative donor pooled serum from the Dutch bloodbank); format: binding, human; design: Binding of Control serum LUMC to linear peptides / Binding of Control serum Blood-bank to linear peptides / Binding of Control serum LUMC to looped peptides / Binding of Control Serum Blood-Bank to Looped peptides / Binding of Control serum LUMC to linear peptides of the protein M of SARS-CoV Urbani / Binding of Control serum Blood-bank to linear peptides of the protein M of SARS-CoV Urbani / Binding of Control serum LUMC to looped peptides of the protein M of SARS-CoV Urbani / Binding of Control Serum Blood-Bank to Looped peptides of the protein M of SARS-CoV Urbani: unit not given here

Row | Sequence | Rabbit serum linear peptides [1] | Rabbit serum looped peptides [1] | Binding of Control Serum Blood-Bank to Looped peptides of the protein X3 of SARS-CoV Urbani [2] | Binding of Control serum Blood-bank to linear peptides of the protein X3 of SARS-CoV Urbani [2] | Binding of Control serum LUMC to linear peptides of the protein X3 of SARS-CoV Urbani [2] | Binding of Control serum LUMC to looped peptides of the protein X3 of SARS-CoV Urbani [2] | Binding of Control Serum Blood-Bank to Looped peptides [2] | Binding of Control serum Blood-bank to linear peptides [2] | Binding of Control serum LUMC to linear peptides [2] | Binding of Control serum LUMC to looped peptides [2] | Binding of a rabbit serum to linear peptides [1] | Binding of a rabbit serum to looped peptides [1] | further results
1 | IIIMRTFRIAIWNLD | 0.4 | 0.5 | 0.8 | 0.9 | 0.9 | 0.8 | – | – | – | – | – | – | –
2 | IMRTFRIAIWNLDVI | 0.4 | 0.6 | 0.9 | 0.8 | 0.8 | 0.8 | – | – | – | – | – | – | –
3 | INCQDPAGGALIARC | 0.5 | 0.6 | – | – | – | – | 0.9 | 1.1 | 0.6 | 0.7 | – | – | –
4 | INWVTGGIAIAMACI | 0.5 | 0.4 | – | – | – | – | – | – | – | – | – | – | Binding of Control Serum Blood-Bank to Looped peptides of the protein M of SARS-CoV Urbani [2]: 0.6; Binding of Control serum Blood-bank to linear peptides of the protein M of SARS-CoV Urbani [2]: 0.8; Binding of Control serum LUMC to linear peptides of the protein M of SARS-CoV Urbani [2]: 0.5; Binding of Control serum LUMC to looped peptides of the protein M of SARS-CoV Urbani [2]: 0.9
5 | ISSIVRQLFKPLTKK | 0.3 | 0.5 | 0.8 | 0.8 | 0.9 | 0.7 | – | – | – | – | – | – | –
6 | IVRQLFKPLTKKNYS | 0.4 | 0.6 | 0.9 | 0.9 | 0.8 | 0.9 | – | – | – | – | – | – | –
7 | KDPPNVQIHTIDGSS | – | – | – | – | – | – | 1.1 | 0.3 | 0.3 | 1.1 | 0.1 | 0.9 | –
8 | KKTTKLVVILRIGTQ | – | – | – | – | – | – | 0.6 | 0.4 | 0.5 | 0.8 | – | – | Recognition of the peptide by the rabbit serum [1]: recognized
9 | KLKEDYQIGGYSEDR | – | – | – | – | – | – | 0.5 | 0.5 | 0.5 | 0.6 | 0.1 | 0.5 | –
10 | KLNTDHAGSNDNIAL | 0.4 | 0.3 | – | – | – | – | – | – | – | – | – | – | Binding of Control Serum Blood-Bank to Looped peptides of the protein M of SARS-CoV Urbani [2]: 1.0; Binding of Control serum Blood-bank to linear peptides of the protein M of SARS-CoV Urbani [2]: 0.9; Binding of Control serum LUMC to linear peptides of the protein M of SARS-CoV Urbani [2]: 0.7; Binding of Control serum LUMC to looped peptides of the protein M of SARS-CoV Urbani [2]: 0.9
11 | KLVKDPPNVQIHTID | – | – | – | – | – | – | 0.4 | 0.4 | 0.5 | 0.4 | 0.1 | 0.4 | –
12 | KNYSELDDEEPMELD | 0.3 | 0.2 | 0.6 | 0.7 | 0.6 | 0.8 | – | – | – | – | – | – | –
13 | KPLTKKNYSELDDEE | 0.4 | 0.5 | 0.8 | 0.7 | 0.8 | 0.7 | – | – | – | – | – | – | –
14 | KPTVYVYSRVKNLNS | – | – | – | – | – | – | 0.9 | 0.7 | 0.8 | 0.9 | 0.6 | 0.9 | –
15 | KTMSLYMAISPKFTT | – | – | – | – | – | – | 0.7 | 0.7 | 0.6 | 1.0 | 0.3 | 0.8 | –
16 | KTTKLVVILRIGTQV | – | – | – | – | – | – | 0.7 | 0.4 | 0.5 | 0.7 | – | – | Recognition of the peptide by the rabbit serum [1]: recognized
17 | LCAYCCNIVNVSLVK | – | – | – | – | – | – | 0.8 | 1.1 | 0.8 | 0.7 | 0.7 | 0.4 | –
18 | LGRCDIKDLPKEITV | 0.1 | 0.6 | – | – | – | – | – | – | – | – | – | – | Binding of Control Serum Blood-Bank to Looped peptides of the protein M of SARS-CoV Urbani [2]: 0.8; Binding of Control serum Blood-bank to linear peptides of the protein M of SARS-CoV Urbani [2]: 0.7; Binding of Control serum LUMC to linear peptides of the protein M of SARS-CoV Urbani [2]: 0.5; Binding of Control serum LUMC to looped peptides of the protein M of SARS-CoV Urbani [2]: 0.8
19 | LIIIMRTFRIAIWNL | 0.5 | 0.3 | 0.6 | 0.7 | 0.6 | 0.7 | – | – | – | – | – | – | –
20 | LKTMSLYMAISPKFT | – | – | – | – | – | – | 0.6 | 0.7 | 0.6 | 0.6 | 0.1 | 0.4 | –
21 | LTKKNYSELDDEEPM | 0.2 | 0.4 | 0.8 | 0.9 | 0.6 | 1.0 | – | – | – | – | – | – | –
22 | LYHYQECVRGTTVLL | 0.6 | 0.3 | – | – | – | – | 0.7 | 0.6 | 0.6 | 0.6 | – | – | –
23 | MDPIYDEPTTTTSVP | – | – | – | – | – | – | 0.3 | 0.6 | 0.5 | 0.3 | 0.1 | 0.3 | –
24 | NGTITVEELKQLLEQ | – | – | – | – | – | – | – | – | – | – | – | – | Recognition of the peptide by the rabbit serum [1]: recognized; Binding of Control Serum Blood-Bank to Looped peptides of the protein M of SARS-CoV Urbani [2]: 0.6; Binding of Control serum Blood-bank to linear peptides of the protein M of SARS-CoV Urbani [2]: 0.7; Binding of Control serum LUMC to linear peptides of the protein M of SARS-CoV Urbani [2]: 0.5; Binding of Control serum LUMC to looped peptides of the protein M of SARS-CoV Urbani [2]: 0.8
25 | NSKKTTKLVVILRIG | – | – | – | – | – | – | 0.7 | 0.4 | 0.9 | 0.7 | – | – | Recognition of the peptide by the rabbit serum [1]: recognized
26 | NVSLVKPTVYVYSRV | – | – | – | – | – | – | 0.7 | 0.6 | 0.5 | 0.8 | 0.5 | 0.3 | –
27 | NYKLNTDHAGSNDNI | 0.5 | 0.0 | – | – | – | – | – | – | – | – | – | – | Binding of Control Serum Blood-Bank to Looped peptides of the protein M of SARS-CoV Urbani [2]: 0.6; Binding of Control serum Blood-bank to linear peptides of the protein M of SARS-CoV Urbani [2]: 0.7; Binding of Control serum LUMC to linear peptides of the protein M of SARS-CoV Urbani [2]: 0.5; Binding of Control serum LUMC to looped peptides of the protein M of SARS-CoV Urbani [2]: 0.8
28 | NYSELDDEEPMELDY | 0.4 | 0.3 | 0.8 | 0.9 | 0.9 | 0.9 | – | – | – | – | – | – | –
29 | PFHPLADNKFALTCT | 0.4 | 0.4 | – | – | – | – | 0.9 | 0.7 | 0.8 | 0.9 | – | – | –
30 | PLADNKFALTCTSTH | 1.1 | 0.0 | – | – | – | – | 0.6 | 0.8 | 0.5 | 0.7 | – | – | –
